Data: patent publication US10703765B2 (priority 2014, dated 2020)
Where a name gives a salt, the structure may show the parent alone. Read-outs that look alike come from different tables or passages of the source.

Molecular target: human σ1 receptor (Homo sapiens, UniProt Q99720)
Assay: biochemical
Assay type: binding
Set-up: μ and σ1 dual binding: key to the marks not given beside the values
[1] = combined class from Ki-σ1 (human σ1 receptor, A1) and Ki-μ (human μ-opioid receptor, A2) radioligand binding
[2] = read-out: μ and σ1 dual binding

human σ1 receptor, sequence (Q99720 whole entry): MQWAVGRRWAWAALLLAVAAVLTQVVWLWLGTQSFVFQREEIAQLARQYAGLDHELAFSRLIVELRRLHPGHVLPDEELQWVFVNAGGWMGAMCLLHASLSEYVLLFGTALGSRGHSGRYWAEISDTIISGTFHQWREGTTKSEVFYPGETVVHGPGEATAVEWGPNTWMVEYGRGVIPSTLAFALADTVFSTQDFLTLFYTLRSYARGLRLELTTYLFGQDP

Structure (SMILES) | Ki [2] [nM] | also measured
CC1OC2(CCN(CC(O)c3ccccc3)CC2)CN(c2ccccc2)C1=O (mixture of isomers) [Example 150, 9-(2-hydroxy-2-phenylethyl)-2-methyl-4-phenyl-1-oxa-4,9-diazaspiro[5.5]undecan-3-one] | – | Ki: > 500 nM
COc1ccc(N2CC3(CCN(CCc4ccccc4)CC3)OC(C)C2=O)cc1.Cl (stereo not shown) [Example 1, 4-(4-methoxyphenyl)-2-methyl-9-phenethyl-1-oxa-4,9-diazaspiro[5.5]undecan-3-one hydrochloride] | – | μ and σ1 dual binding: ++
COc1ccccc1N1CC2(CCN(Cc3ccccc3)CC2)OCC1=O [Example 2, 9-benzyl-4-(2-methoxyphenyl)-1-oxa-4,9-diazaspiro[5.5]undecan-3-one] | – | μ and σ1 dual binding [1]: ++
Cl.O=C1COC2(CCN(Cc3ccccc3)CC2)CN1c1ccccc1 [Example 3, 9-benzyl-4-phenyl-1-oxa-4,9-diazaspiro[5.5]undecan-3-one hydrochloride] | – | μ and σ1 dual binding: ++
COc1ccccc1N1CC2(CCN(CCc3ccccc3)CC2)OCC1=O [Example 4, 4-(2-methoxyphenyl)-9-phenethyl-1-oxa-4,9-diazaspiro[5.5]undecan-3-one] | – | μ and σ1 dual binding [1]: ++
O=C1COC2(CCN(CCc3ccccc3)CC2)CN1c1ccccc1 [Example 5, 9-phenethyl-4-phenyl-1-oxa-4,9-diazaspiro[5.5]undecan-3-one] | < 500 | –
COc1cccc(N2CC3(CCN(Cc4ccccc4)CC3)OCC2=O)c1 [Example 6, 9-benzyl-4-(3-methoxyphenyl)-1-oxa-4,9-diazaspiro[5.5]undecan-3-one] | – | μ and σ1 dual binding [1]: ++
O=C1COC2(CCN(Cc3ccccc3)C2)CN1c1ccccc1 (stereo not shown) [Example 7, 2-benzyl-9-phenyl-6-oxa-2,9-diazaspiro[4.5]decan-8-one] | – | μ and σ1 dual binding [1]: ++
COc1cccc(N2CC3(CCN(CCc4ccccc4)CC3)OCC2=O)c1 [Example 8, 4-(3-methoxyphenyl)-9-phenethyl-1-oxa-4,9-diazaspiro[5.5]undecan-3-one] | – | μ and σ1 dual binding [1]: ++
CC1OC2(CCN(CCc3ccccc3)CC2)CN(c2ccccc2)C1=O (stereo not shown) [Example 9, 2-methyl-9-phenethyl-4-phenyl-1-oxa-4,9-diazaspiro[5.5]undecan-3-one] | < 100 | –
C[C@H]1OC2(CCN(CCc3ccccc3)CC2)CN(c2ccccc2)C1=O [Example 10a, (R)-2-methyl-9-phenethyl-4-phenyl-1-oxa-4,9-diazaspiro[5.5]undecan-3-one] | < 100 | –
C[C@@H]1OC2(CCN(CCc3ccccc3)CC2)CN(c2ccccc2)C1=O [Example 10b, (S)-2-methyl-9-phenethyl-4-phenyl-1-oxa-4,9-diazaspiro[5.5]undecan-3-one] | < 100 | –
COCC1OC2(CCN(CCc3ccccc3)CC2)CN(c2ccccc2)C1=O (stereo not shown) [Example 11, 2-(methoxymethyl)-9-phenethyl-4-phenyl-1-oxa-4,9-diazaspiro[5.5]undecan-3-one] | < 100 | –
COC[C@@H]1OC2(CCN(CCc3ccccc3)CC2)CN(c2ccccc2)C1=O [Example 12a, (S)-2-(methoxymethyl)-9-phenethyl-4-phenyl-1-oxa-4,9-diazaspiro[5.5]undecan-3-one] | < 500 | –
COC[C@H]1OC2(CCN(CCc3ccccc3)CC2)CN(c2ccccc2)C1=O [Example 12b, (R)-2-(methoxymethyl)-9-phenethyl-4-phenyl-1-oxa-4,9-diazaspiro[5.5]undecan-3-one] | < 100 | –
CCC1OC2(CCN(CCc3ccccc3)CC2)CN(c2ccccc2)C1=O (stereo not shown) [Example 13, 2-ethyl-9-phenethyl-4-phenyl-1-oxa-4,9-diazaspiro[5.5]undecan-3-one] | < 100 | –
COC(=O)CC1OC2(CCN(CCc3ccccc3)CC2)CN(c2ccccc2)C1=O (stereo not shown) [Example 14, methyl 2-(3-oxo-9-phenethyl-4-phenyl-1-oxa-4,9-diazaspiro[5.5]undecan-2-yl)acetate hydrochloride] | < 100 | –
COc1cccc(N2CC3(CCN(CCc4ccccc4)CC3)OC(C)C2=O)c1 (stereo not shown) [Example 15, 4-(3-methoxyphenyl)-2-methyl-9-phenethyl-1-oxa-4,9-diazaspiro[5.5]undecan-3-one hydrochloride] | < 500 | –
CC1OC2(CCN(Cc3ccccc3)CC2)CN(c2ccccc2)C1=O.Cl (stereo not shown) [Example 16, 9-benzyl-2-methyl-4-phenyl-1-oxa-4,9-diazaspiro[5.5]undecan-3-one hydrochloride] | – | μ and σ1 dual binding: ++
CC(C)C1OC2(CCN(CCc3ccccc3)CC2)CN(c2ccccc2)C1=O (stereo not shown) [Example 17, 2-isopropyl-9-phenethyl-4-phenyl-1-oxa-4,9-diazaspiro[5.5]undecan-3-one hydrochloride] | < 100 | –

Structure (SMILES) | Ki [2] [nM] | also measured
CC1(C)OC2(CCN(CCc3ccccc3)CC2)CN(c2ccccc2)C1=O [Example 18, 2,2-dimethyl-9-phenethyl-4-phenyl-1-oxa-4,9-diazaspiro[5.5]undecan-3-one] | < 100 | –
O=C1C(COCc2ccccc2)OC2(CCN(CCc3ccccc3)CC2)CN1c1ccccc1 (stereo not shown) [Example 19, 2-((benzyloxy)methyl)-9-phenethyl-4-phenyl-1-oxa-4,9-diazaspiro[5.5]undecan-3-one hydrochloride] | < 100 | –
CC1OC2(CCN(CCc3ccccc3)CC2)CN(c2ccn(C)n2)C1=O.Cl (stereo not shown) [Example 20, 2-methyl-4-(1-methyl-1H-pyrazol-3-yl)-9-phenethyl-1-oxa-4,9-diazaspiro[5.5]undecan-3-one hydrochloride] | – | μ and σ1 dual binding: ++
C=C1OC2(CCN(CCc3ccccc3)CC2)CN(c2ccccc2)C1=O [Example 21, 2-methylene-9-phenethyl-4-phenyl-1-oxa-4,9-diazaspiro[5.5]undecan-3-one] | > 500 | –
C=C1OC2(CCN(CCc3ccccc3)CC2)CN(c2ccccc2F)C1=O [Example 22, 4-(2-fluorophenyl)-2-methylene-9-phenethyl-1-oxa-4,9-diazaspiro[5.5]undecan-3-one] | > 500 | –
CC1OC2(CCN(CCc3ccc([N+](=O)[O-])cn3)CC2)CN(c2ccccc2)C1=O (stereo not shown) [Example 23, 2-methyl-9-(2-(5-nitropyridin-2-yl)ethyl)-4-phenyl-1-oxa-4,9-diazaspiro[5.5]undecan-3-one] | > 500 | –
CC1OC2(CCN(CCc3ccc([N+](=O)[O-])cn3)CC2)CN(c2ccccc2F)C1=O (stereo not shown) [Example 24, 4-(2-fluorophenyl)-2-methyl-9-(2-(5-nitropyridin-2-yl)ethyl)-1-oxa-4,9-diazaspiro[5.5]undecan-3-one] | > 500 | –
CC1OC2(CCN(CCc3ncccc3[N+](=O)[O-])CC2)CN(c2ccccc2F)C1=O (stereo not shown) [Example 25, 4-(2-fluorophenyl)-2-methyl-9-(2-(3-nitropyridin-2-yl)ethyl)-1-oxa-4,9-diazaspiro[5.5]undecan-3-one] | > 500 | –
CC1OC2(CCN(CCc3ncccn3)CC2)CN(c2ccccc2)C1=O (stereo not shown) [Example 26, 2-methyl-4-phenyl-9-(2-(pyrimidin-2-yl)ethyl)-1-oxa-4,9-diazaspiro[5.5]undecan-3-one hydrochloride] | > 500 | –
CC1OC2(CCN(CCc3cccnc3[N+](=O)[O-])CC2)CN(c2ccccc2)C1=O (stereo not shown) [Example 27, 2-methyl-9-(2-(2-nitropyridin-3-yl)ethyl)-4-phenyl-1-oxa-4,9-diazaspiro[5.5]undecan-3-one] | > 500 | –
CC1OC2(CCN(CCc3cc(C(F)(F)F)ccn3)CC2)CN(c2ccccc2)C1=O (stereo not shown) [Example 28, 2-methyl-4-phenyl-9-(2-(4-(trifluoromethyl)pyridin-2-yl)ethyl)-1-oxa-4,9-diazaspiro[5.5]undecan-3-one hydrochloride] | – | Ki: < 100 nM
CC1OC2(CCN(CCc3cccc(N)n3)CC2)CN(c2ccccc2)C1=O (stereo not shown) [Example 29, 9-(2-(6-aminopyridin-2-yl)ethyl)-2-methyl-4-phenyl-1-oxa-4,9-diazaspiro[5.5]undecan-3-one] | – | Ki: < 500 nM
CC1OC2(CCN(CCc3cc(N)ccn3)CC2)CN(c2ccccc2)C1=O (stereo not shown) [Example 30, 9-(2-(4-aminopyridin-2-yl)ethyl)-2-methyl-4-phenyl-1-oxa-4,9-diazaspiro[5.5]undecan-3-one hydrochloride] | > 500 | –
CC1OC2(CCN(CCc3cccc(C(F)(F)F)n3)CC2)CN(c2ccccc2F)C1=O (stereo not shown) [Example 31, 4-(2-fluorophenyl)-2-methyl-9-(2-(6-(trifluoromethyl)pyridin-2-yl)ethyl)-1-oxa-4,9-diazaspiro[5.5]undecan-3-one hydrochloride] | – | Ki: < 500 nM
CC1OC2(CCN(CCc3ccnc(N)c3)CC2)CN(c2ccccc2)C1=O (stereo not shown) [Example 32, 9-(2-(2-aminopyridin-4-yl)ethyl)-2-methyl-4-phenyl-1-oxa-4,9-diazaspiro[5.5]undecan-3-one] | – | μ and σ1 dual binding [1]: ++
CC1OC2(CCN(CCc3ncccc3C(F)(F)F)CC2)CN(c2ccccc2)C1=O (stereo not shown) [Example 33, 2-methyl-4-phenyl-9-(2-(3-(trifluoromethyl)pyridin-2-yl)ethyl)-1-oxa-4,9-diazaspiro[5.5]undecan-3-one hydrochloride] | – | Ki: < 500 nM
CC1OC2(CCN(CCc3ccc(C(F)(F)F)cn3)CC2)CN(c2ccccc2)C1=O (stereo not shown) [Example 34, 2-methyl-4-phenyl-9-(2-(5-(trifluoromethyl)pyridin-2-yl)ethyl)-1-oxa-4,9-diazaspiro[5.5]undecan-3-one hydrochloride] | > 500 | –
COc1ccnc(CCN2CCC3(CC2)CN(c2ccccc2)C(=O)C(C)O3)c1 (stereo not shown) [Example 35, 9-(2-(4-methoxypyridin-2-yl)ethyl)-2-methyl-4-phenyl-1-oxa-4,9-diazaspiro[5.5]undecan-3-one] | – | μ and σ1 dual binding [1]: ++
CC1OC2(CCN(CCc3ccc(C#N)cn3)CC2)CN(c2ccccc2)C1=O (stereo not shown) [Example 36, 6-(2-(2-methyl-3-oxo-4-phenyl-1-oxa-4,9-diazaspiro[5.5]undecan-9-yl)ethyl)nicotinonitrile hydrochloride] | > 500 | –
CC1OC2(CCN(CCc3ncccc3Cl)CC2)CN(c2ccccc2)C1=O (stereo not shown) [Example 37, 9-(2-(3-chloropyridin-2-yl)ethyl)-2-methyl-4-phenyl-1-oxa-4,9-diazaspiro[5.5]undecan-3-one hydrochloride] | – | Ki: < 500 nM
